The test system of this assay is Mycobacterium tuberculosis. Briefly: Antimycobacterial activity against Mycobacterium tuberculosis overexpressing Rv0560c-OE in iron-free GAST medium at 0.04 to 10 uM after 8 days by two fold serial dilution method. It is filed as functional, organism-based.

SMILES strings stand for the structures. Active and inactive are the calls of the source. The calls are words filed in the database; no cut-off is given here.

Regarding `Nc1ncnc2c1ncn2[C@@H]1O[C@H](COS(=O)(=O)NC(=O)c2ccccc2O)[C@@H](O)[C@H]1O`, the result was Active.

The values above are taken from ChEMBL document CHEMBL4145560, “Conformationally Constrained Cinnolinone Nucleoside Analogues as Siderophore Biosynthesis Inhibitors for Tuberculosis” (ACS Med Chem Lett, 2018).
